Results taken from patent US20020133837A1, “Transgenic animals at a nuclear hormone receptor locus” (priority 2001, published 2002).
Entries after “also recorded” stand apart in the source; their conditions may differ.

Test system: inbred transgenic mice with mutant thyroid hormone receptor beta (TRβPV) and wild-type mice
Assay: Behavioral analysis of locomotor activity (light beam breaks) after methylphenidate
Format: in vivo, mouse
Conditions: methylphenidate 7.5 mg/kg or 30.0 mg/kg on day 3, activity assessed for 3 hours following injection
Experimental: Animals were kept on a light-dark schedule of 12 hours with lights on at 6:00 a.m. Behavioral tests were started between 4:30 p.m. and 5:30 p.m. Eleven-to sixteen-week-old mice were assessed in a 15×30 cm cage with four light beams crossing the cage on the long axis. Locomotor activity was measured by computer-automated counting of the number of times a light beam was blocked (San Diego Instruments, San Diego, Calif.). Activity was measured for 3 hours upon introduction of each animal to the chamber on day 1 to measure baseline/novel behavior levels (see FIG. 3), and the animals remained in the chambers for the length of the experiment (3 days) to permit drug response in an acclimated environment. On day 2, animals were injected with saline (i.p),and on day 3 with methylphenidate (7.5 mg/kg or 30.0 mg/kg). Food and water were provided ad libitum, and activity was assessed for 3 hours following injection. Activity scores were subjected to analysis of variance (ANOVA) analysis to compare the groups by genotype and injection status.

COC(=O)C(c1ccccc1)C1CCCCN1 (centres unmarked) [methylphenidate] was tested, and the “level of locomotor activity in response to methylphenidate” value (heterozygous and homozygous TRβ PV mutant inbred mice) was “decreased levels of activity; also recorded: responded to treatment; also recorded: reduced their level of activity; also recorded: level of activity in these mice was reduced” and the “level of locomotor activity in response to methylphenidate” value (wild-type mice) was “increase in activity”.
